The source of these data is US12577247B2 (BUGWORKS RESEARCH, INC., priority 2021, dated 2026).

SMILES strings stand for the structures. pEC50, pIC50: −log10 of the molar value. Read-outs that look alike come from different tables or passages of the source.

The target of assay [1] is T1, A2A receptor (Homo sapiens, UniProt P29274).
T1 construct: host or cells: HEK-293
The assay is described as follows: A2aR antagonism IC50, cAMP TR-FRET (Lance Ultra) in HEK-293 cells, NECA as agonist.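 Note: compounds tested from 10 µM down to 0.08 nM in buffer with Rolipram at room temperature, TR-FRET cAMP signal read 1 h after adding Eu-cAMP tracer and ULight anti-cAMP.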 The settings on record: A2AR IC50 (nM) (@5 nM NECA), HEK-293 cells expressing A2A receptor; agonist NECA 5 nM (EC90); inhibition of cAMP. The class given is cell-based. On the technique in general: TR-FRET usually uses a lanthanide donor and a delayed reading to cut background.

Assay [2] deals with T2, hERG potassium channel (Homo sapiens, UniProt Q12809).
T2 construct: a Chinese Hamster Ovary cell line stably expressing the full-length hERG potassium channel; expressed in transfected cells; host or cells: Chinese Hamster Ovary cell line
Description: hERG inhibition assay, Qpatch HTX automated electrophysiology. Format: cell-based. The following applies: CHO cell line stably expressing hERG; whole-cell patch clamp; room temperature. Here is the method:
The representative compounds of formula I were tested for inhibition of the human ether a go-go related gene (hERG) K+ channel using Qpatch HTX automated electrophysiology. 6-Point concentration-response curves were generated using three-fold serial dilutions from a maximum final test concentration of […] and the results are presented in Table 3.
Compounds were solubilised to 100 mM in DMSO before dilution in HBPS to 100 μM. […] Electrophysiological recordings were made from a Chinese Hamster Ovary cell line stably expressing the full-length hERG potassium channel. Single cell ionic currents were measured in whole-cell patch clamp configuration at room temperature (21-23° C.) using the Qpatch HTX platform (Sophion). Intracellular solution contained (mM): 120 KF, 20 KCl, 10 EGTA, 10 HEPES and was buffered to pH 7.3. […] Cells were clamped at a holding potential of −80 mV. Cells were stepped to +20 mV for 2 s then −40 mV for 3 s before returning to the holding potential. This sweep was repeated 10 times at 10 s intervals. hERG currents were measured from the tail step and referenced to the holding current. Compounds were then incubated for 2 minutes prior to a second measurement of ion channel current using an identical pulse train.
A general note: hERG is a cardiac potassium channel; its block is linked to QT prolongation.

Assay [3] addresses T3, A2B receptor (Homo sapiens, UniProt P29275).
T3 sequence (P29275 1-332): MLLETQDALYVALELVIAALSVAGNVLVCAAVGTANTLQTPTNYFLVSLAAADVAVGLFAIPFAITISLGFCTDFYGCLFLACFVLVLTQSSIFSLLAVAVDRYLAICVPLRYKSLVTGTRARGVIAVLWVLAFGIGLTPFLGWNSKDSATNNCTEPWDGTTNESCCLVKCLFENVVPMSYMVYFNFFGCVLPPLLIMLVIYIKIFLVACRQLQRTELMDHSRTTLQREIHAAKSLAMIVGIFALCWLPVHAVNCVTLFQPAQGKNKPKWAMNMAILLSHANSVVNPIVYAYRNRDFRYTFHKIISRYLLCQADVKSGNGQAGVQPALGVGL
Description: A2bR antagonism IC50, cAMP TR-FRET (Lance Ultra) in HEK-293 cells, NECA as agonist. Format: cell-based. Also on record: host or cells: HEK-293. The following applies: HEK-293 cells expressing A2B receptor; agonist NECA 30 nM (EC90); inhibition of cAMP.
Description: Adenosine A2A receptors and Adenosine A2B receptors induce the production of cAMP when activated/stimulated by an agonist like adenosine or 5′-(N-Ethylcarboxamido) adenosine (NECA). A Time-Resolved Fluorescence Energy Transfer (TR-FRET) assay was used to show the inhibition of this cAMP production in HEK cells upon treatment with compounds of the Formula I of the present disclosure.
HEK-293 cells expressing A2A receptor (#ES-011-C) or A2B receptor (#ES 013-C) were obtained from PerkinElmer. Cells were maintained in DMEM medium supplemented with 10% FBS and 200 μg/mL of G418 at 37° C. and 5% CO2. The cells were cultured in antibiotic free medium for a period of 16-20 hours prior to the assay. All subsequent steps of the assay are performed at room temperature (22-24° C.). The cells were harvested at about 80% confluency by gentle flushing with PBS, recovered by centrifugation and resuspended in stimulation buffer at the concentration of 5.0×10^6 cells/mL.
The assays were conducted in a stimulation buffer containing 1×DMEM, 5 mM HEPES, 0.1% BSA stabilizer and 20-30 μM Rolipram. Serial dilutions of compounds were made in stimulation buffer to achieve a final concentration of high micromolar (10 μM to 0.08 nM) in the reaction volume of 10 μL. The total reaction volume was 10 μL (5 μL of cells, 2.5 μL of antagonist and 2.5 μL of agonist). The stimulation was ended, and the reaction completed by adding 5 μL of 4× Eu-cAMP tracer working solution and 5 μL of 4× ULight-anti-cAMP working solution. The TR-FRET signal was measured after 1-hour incubation using a Tecan M1000 reader.

Assay [4] has as its target T1, A2A receptor. Description: A2aR antagonism IC50, cAMP TR-FRET in HEK-293 cells, high concentration of adenosine (30 μM).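 Note: compounds added 10 min before adenosine, then 30 min stimulation at room temperature in buffer with 100 µM rolipram and 30 µM EHNA, signal read 1 h after detection reagents.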 The class given is cell-based. The following applies: HEK-293 cells expressing A2A receptor; agonist adenosine 30 μM; 2% HSA; inhibition of cAMP; read-out: A2AR IC50 (nM) (@30 μM Adenosine).
Description: A Time-Resolved Fluorescence Energy Transfer (TR-FRET) assay was used to show the inhibition of this cAMP production in HEK cells upon treatment with compounds of the Formula I of the present disclosure.
HEK-293 cells expressing A2A receptor (#ES-011-C) or A2B receptor (#ES 013-C) were obtained from PerkinElmer. Cells were maintained in DMEM medium supplemented with 10% FBS and 200 μg/mL of G418 at 37° C. and 5% CO2. The cells were cultured in antibiotic free medium for a period of 16-20 hours prior to the assay. All subsequent steps of the assay are performed at room temperature (22-24° C.). […] About 1500 cells per well were pre-incubated for 10 minutes with the compounds of the present invention before adding the agonist Adenosine at a high concentration (30 μM) for a total stimulation time of 30 minutes. […] The assays were conducted in a stimulation buffer containing 1×DMEM, 5 mM HEPES, 2% Human serum albumin (HSA), 100 μM Rolipram and 30 μM erythro-9-(2-hydroxy-3-nonyl) adenine (EHNA). Serial dilutions of compounds were made in stimulation buffer to achieve a final concentration of high micromolar in a reaction volume of 10 μL. The total reaction volume was 10 μL (5 μL of cells, 2.5 μL of antagonist and 2.5 μL of agonist). […] The stimulation was ended, and the reaction completed by adding 5 μL of 4× Eu-cAMP tracer working solution and 5 μL of 4× ULight-anti-cAMP working solution. The TR FRET signal was measured after 1-hour incubation using a Tecan M1000 or a PerkinElmer Victor Nivo plate reader.
In assay [5] the test system is human Peripheral blood mononuclear cells (PBMCs). The assay is described as follows: Cytokine restoration assay in human PBMCs (IL-2, TNF-α) under NECA. The class given is cell-based. The following applies: PBMC, NECA 5 μM, anti CD3/28 Dynabeads, 48 hours. From the text: The ability of the invention compounds disclosed herein to restore the cytokines (IL-2 and TNF-α) release under adenosine agonist (NECA) environment evaluated using human Peripheral blood mononuclear cells (PBMCs). Peripheral blood was collected from healthy adult individuals in vacutainer tube. Peripheral blood mononuclear cells (PBMCs) were isolated via density gradient centrifugation, which uses Ficoll (Histopaque buffer) combined with short, low-speed centrifugation, to separate different cell populations. Diluted defibrinated blood was layered on a Ficoll and centrifuged at 1800 rpm for 20 minutes at 22° C. Differential migration of cells during centrifugation results in the formation of layers containing different cell types. The bottom layer contains erythrocytes. Remaining cells (i.e., lymphocytes, monocytes, and platelets) that are not dense enough to penetrate the Ficoll media layers (densities of 1.0770 g/ml), forms a buffy coat at the interface between the upper plasma layer and the Ficoll media layer. After carefully collected the buffy coat excess of platelets, Ficoll and plasma were removed by washing it with isotonic sterile phosphate buffered saline (PBS) and resulting cell pellet was resuspended in RPMI media with 5% FBS an P/S. The isolated PBMCs were allowed to be conditioned for an hour at 37° C. in a CO2 incubator. These cells were subsequently used for specific downstream assay. Isolated PBMC (3×10^5 cells/200 μl) were plated in 96 well microtiter plate in RPMI media with 5% FBS in presence of 100 units of penicillin plus 100 μg/ml streptomycin. NECA was added at a final concentration of 5 μM, control wells were maintained without NECA suppression (i.e., no NECA control). The assay plates were incubated at 37° C. for 4 hours in a CO2 incubator. Various concentrations of test compounds were added into respective wells in triplicates. Pre-washed anti CD3/28 Dynabeads (2.5 μL) was added for CD4 and CD8 + T-cell stimulation (to obtain a bead-to-cell ratio of 1:1). The assay plate was incubated at 37° C. in 5% CO2 and 20% ambient O2 maximum for 48 hours. At the end of 48 hours, the activated PBMC were harvested, and culture supernatants were used directly for further analysis. Forty-eight hours post treatment, 15 μL of cell-free supernatant was collected and assayed for secreted IL2 using the human Interleukin 2 (hIL2)—LANCE Ultra Detection Kit (Perkin Elmer). Similarly, level of soluble Tumor Necrosis Factor alpha (TNFα) was determined using human TNFα LANCE Ultra Detection Kit (Perkin Elmer). T-FRET signal was measured with Tecan spark multimode plate reader. Data was analyzed by graph-pad prism9. EC50 s of the compounds of Formula (I) in restoration of cytokine release under adenosine agonist from the human PBMCS are presented in Table 2

For assay [6], the target named is T3, A2B receptor. The assay is described as follows: A2bR antagonism IC50, cAMP TR-FRET in HEK-293 cells, high concentration of adenosine (30 μM).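 Note: compounds preincubated 10 min with cells, then adenosine stimulation 30 min at room temperature in buffer with Rolipram 100 µM and EHNA 30 µM, TR-FRET read after 1 h.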 The settings on record: A2BR IC50 (nM) (@30 μM Adenosine), HEK-293 cells expressing A2B receptor; agonist adenosine 30 μM; 2% HSA; inhibition of cAMP.
[7] abbreviates: read-out: IL-2 restoration EC50.
Where [8] appears, read: read-out: TNF-α restoration EC50.

T1 sequence (P29274 whole entry): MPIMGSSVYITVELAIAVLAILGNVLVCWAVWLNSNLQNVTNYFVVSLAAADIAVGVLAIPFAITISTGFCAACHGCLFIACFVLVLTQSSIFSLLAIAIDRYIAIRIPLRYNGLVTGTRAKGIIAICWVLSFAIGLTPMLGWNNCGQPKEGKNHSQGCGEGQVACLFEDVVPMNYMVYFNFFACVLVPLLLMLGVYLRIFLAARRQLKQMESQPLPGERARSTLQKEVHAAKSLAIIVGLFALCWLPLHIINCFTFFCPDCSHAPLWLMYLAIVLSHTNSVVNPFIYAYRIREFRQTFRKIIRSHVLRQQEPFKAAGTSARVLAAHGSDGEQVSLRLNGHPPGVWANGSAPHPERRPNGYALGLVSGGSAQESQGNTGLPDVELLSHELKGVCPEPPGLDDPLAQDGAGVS
T2 sequence (Q12809 whole entry): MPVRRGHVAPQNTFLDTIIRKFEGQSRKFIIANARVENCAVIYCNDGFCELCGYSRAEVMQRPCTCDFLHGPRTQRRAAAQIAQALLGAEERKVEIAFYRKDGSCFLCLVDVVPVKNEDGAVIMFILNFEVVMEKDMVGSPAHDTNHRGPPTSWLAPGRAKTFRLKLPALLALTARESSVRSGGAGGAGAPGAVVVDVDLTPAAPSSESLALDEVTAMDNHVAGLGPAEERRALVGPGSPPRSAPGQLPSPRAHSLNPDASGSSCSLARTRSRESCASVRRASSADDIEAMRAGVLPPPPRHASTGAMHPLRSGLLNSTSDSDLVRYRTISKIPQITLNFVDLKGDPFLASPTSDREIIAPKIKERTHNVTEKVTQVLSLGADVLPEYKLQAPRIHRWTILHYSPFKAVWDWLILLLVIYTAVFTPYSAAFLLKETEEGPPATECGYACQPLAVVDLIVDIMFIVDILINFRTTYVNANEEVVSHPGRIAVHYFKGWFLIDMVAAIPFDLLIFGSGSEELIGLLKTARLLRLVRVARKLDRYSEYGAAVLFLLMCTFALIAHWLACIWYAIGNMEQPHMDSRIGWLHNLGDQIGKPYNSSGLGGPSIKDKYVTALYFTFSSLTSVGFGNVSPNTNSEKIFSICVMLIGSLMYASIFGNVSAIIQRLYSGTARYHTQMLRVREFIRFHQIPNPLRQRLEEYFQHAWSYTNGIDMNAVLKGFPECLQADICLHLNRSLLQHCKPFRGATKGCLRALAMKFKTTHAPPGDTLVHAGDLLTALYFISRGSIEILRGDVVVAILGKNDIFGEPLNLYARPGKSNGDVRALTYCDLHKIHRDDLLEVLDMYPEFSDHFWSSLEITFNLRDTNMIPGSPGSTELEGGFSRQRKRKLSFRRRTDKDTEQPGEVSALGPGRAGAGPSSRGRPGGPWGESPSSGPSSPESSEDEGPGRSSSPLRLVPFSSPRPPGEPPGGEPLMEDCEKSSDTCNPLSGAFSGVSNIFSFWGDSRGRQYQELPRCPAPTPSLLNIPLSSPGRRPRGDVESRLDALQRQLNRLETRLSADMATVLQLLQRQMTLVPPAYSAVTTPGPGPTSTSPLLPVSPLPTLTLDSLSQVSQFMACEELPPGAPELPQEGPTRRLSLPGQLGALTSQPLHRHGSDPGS

The IC50 is the midpoint of a concentration-inhibition curve. A word on the pIC50: it is the IC50 on a negative log10 scale, so that one unit is a factor of ten. Lower therefore signals a large IC50. As to `CCc1c(C)nn2c(N)c(C#N)c(NCCc3ccn(C4CCC4CO)n3)nc12` (single isomer, unassigned; (-)) [Example 79, (−)-7-amino-3-ethyl-5-((2-(1-(2-(hydroxymethyl)cyclobutyl)-1H-pyrazol-3-yl)ethyl)amino)-2-methylpyrazolo[1,5-a]pyrimidine-6-carbonitrile], the IC50 in assay [1] is under 0.1 nM; in assay [3] it was 2 nM; in assay [4] it was 88 nM; in assay [6] it was 586 nM. This molecule also showed a pIC50 in assay [2] of under 4.00. Moreover, the pEC50 was 8.66 in assay [5] (setting [7]) and 8.85 in assay [5] (setting [8]).

As to `CCc1c(C)nn2c(N)c(C#N)c(NCCc3cccc(CCCO)n3)nc12` [Example 155, 7-amino-3-ethyl-5-((2-(6-(3-hydroxypropyl)pyridin-2-yl)ethyl)amino)-2-methylpyrazolo[1,5-a]pyrimidine-6-carbonitrile], in assay [2], the pIC50 is under 4.00. Further, the IC50 came out at 181 nM in assay [4] and 429 nM in assay [6]. Besides, the pEC50 was 8.44 in assay [5] (setting [7]) and 8.49 in assay [5] (setting [8]).

For the molecule `Cc1nn2c(N)c(C#N)c(NCCc3ccn(C4(CO)CC4)n3)nc2c1Cl` [Example 37, 7-amino-3-chloro-5-((2-(1-(1-(hydroxymethyl)cyclopropyl)-1H-pyrazol-3-yl)ethyl)amino)-2-methylpyrazolo[1,5-a]pyrimidine-6-carbonitrile], the IC50 in assay [1] worked out at 0.12 nM; in assay [3], 7 nM; in assay [4], 78 nM; in assay [6] it was 1770 nM.
